In US20060111335A1, “Photoactivated anti-viral and anti-cancer agent” (priority 2002, published 2006):

Experiments:
CT DNA = test: Photolysis with calf thymus DNA: rhodium covalently bound to DNA; type: binding; conditions: irradiation >330 nm
Protocol: General. The quantity of DNA was determined by the Burton assay (Burton, Biochem. J., 62:315-322 (1956)), and its rhodium content was quantitated using flame atomic absorption spectroscopy (AA). The equilibrium constant for interaction between DPPZPHEN and CT-DNA in the dark was calculated from UV-Vis absorption titration measurements at 380 nm (Wolfe et al., Biochem., 26:6392-6396 (1987); Schemel et al., Biopolymers, 10:465-480 (1971)). Cell viability was determined using the MTT assay (Denizot et al., J. Immunol. Methods, 89:271-277 (1986)). SINV was purified on sucrose gradients as previously described (Owen et al., J. Virol., 70:2757-2763 (1996)).
Photolysis with Calf Thymus DNA (CT DNA). Solutions consisting of 1 mL aliquots of 0.58 mM DPPZPHEN and 2.7 mg/mL CT DNA were irradiated with λ>330 nm light. After irradiation, the solutions were purified by exhaustive dialysis and three cycles of precipitation and resuspension. The DNA and Rh content were determined and/or the DNA was utilized in size exclusion chromatography experiments (Mahnken et al., J. Am. Chem. Soc., 114:9253-9265 (1992)).

cells = test: Phototoxicity, summary statement of Example XII; type: cell-based

`[Cl-].[Cl][Rh+]12([Cl])([N]3C=CC=c4ccc5c(c43)[N]1C=CC=5)[N]1C=CC=c3c1c1c(c4nc5ccccc5nc34)=CC=C[N]12` [DPPZPHEN, cis-dichloro(dipyrido[3,2a-2′3′c]phenazine)(1,10-phenantroline) rhodium(III) chloride] was tested, and the “bases per bound molecule of Rh” value (CT DNA) was roughly 18 bases and the phototoxicity (cells) was “are phototoxic”.
